Source: PubChem BioAssay (NCI)
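Grown in 96-well plates, cells were treated for 48 hours with each compound at five concentrations. Insufficient inhibition: endpoint recorded as highest concentration tested. The concentration for 50% growth inhibition is given as GI50. The concentration for full growth arrest is given as TGI.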

Key:
Test in all cases: NCI tumour cell line growth inhibition, 48 h
[1] = tested on: TK-10 renal
[2] = tested on: UACC-62 melanoma
[3] = tested on: HOP-92 NSCLC
[4] = tested on: HCT-15 colon
[5] = tested on: IGROV1 ovarian
[6] = tested on: COLO 205 colon
[7] = tested on: SNB-19 CNS
[8] = tested on: NCI-H522 lung
[9] = tested on: SF-295 CNS
[10] = tested on: RPMI-8226 leukemia
[11] = tested on: MOLT-4 leukemia
[12] = tested on: MCF7 breast
[13] = tested on: SW-620 colon
[14] = tested on: NCI/ADR-RES ovarian
[15] = tested on: 786-0 renal
[16] = tested on: DU-145 prostate
[17] = tested on: T-47D breast
[18] = tested on: SK-OV-3 ovarian
[19] = tested on: HS 578T breast
[20] = tested on: SR leukemia
[21] = tested on: HOP-62 NSCLC
[22] = tested on: OVCAR-3 ovarian
[23] = tested on: A498 renal
[24] = tested on: OVCAR-5 ovarian
[25] = tested on: SK-MEL-2 melanoma
[26] = tested on: EKVX NSCLC
[27] = tested on: A549 NSCLC
[28] = tested on: SK-MEL-5 melanoma
[29] = tested on: RXF 393 renal
[30] = tested on: NCI-H460 lung
[31] = tested on: CCRF-CEM leukemia
[32] = tested on: HCC-2998 colon
[33] = tested on: M14 melanoma
[34] = tested on: KM12 colon
[35] = tested on: OVCAR-8 ovarian
[36] = tested on: MDA-MB-435
[37] = tested on: SN12C renal
[38] = tested on: BT-549 breast
[39] = tested on: HL-60(TB) leukemia
[40] = tested on: K-562 leukemia
[41] = tested on: HT29 colon
[42] = tested on: PC-3 prostate
[43] = tested on: SF-539 CNS
[44] = tested on: SNB-75 CNS
[45] = tested on: SF-268 CNS
[46] = tested on: CAKI-1 renal
[47] = tested on: UO-31 renal
[48] = tested on: OVCAR-4 ovarian
[49] = tested on: U251 CNS
[50] = tested on: SK-MEL-28 melanoma
[51] = tested on: MDA-MB-231 breast
[52] = tested on: MALME-3M melanoma
[53] = tested on: HCT-116 colon
[54] = tested on: LOX IMVI melanoma
[55] = tested on: UACC-257 melanoma
[56] = tested on: ACHN renal

Compound: CN1CCN(c2nc(-c3csc(-c4ccccc4)n3)cc3ccccc23)CC1
- GI50 [1]: 14.6 µM
- TGI [1]: 28.9 µM
- GI50 [2]: 1.93 µM
- TGI [2]: 3.88 µM
- GI50 [3]: 1.88 µM
- TGI [3]: 7.63 µM
- GI50 [4]: 1.85 µM
- TGI [4]: 3.66 µM
- GI50 [5]: 1.88 µM
- TGI [5]: 4.55 µM
- GI50 [6]: 1.68 µM
- TGI [6]: 3.19 µM
- GI50 [7]: 5.52 µM
- TGI [7]: 21.3 µM
- GI50 [8]: 1.93 µM
- TGI [8]: 4.44 µM
- GI50 [9]: 4.97 µM
- TGI [9]: 17.6 µM
- GI50 [10]: 2.09 µM
- TGI [10]: 5.37 µM
- GI50 [11]: 2.02 µM
- TGI [11]: 4.04 µM
- GI50 [12]: 1.65 µM
- TGI [12]: 3.46 µM
- GI50 [13]: 1.63 µM
- TGI [13]: 3.12 µM
- GI50 [14]: 1.93 µM
- TGI [14]: 4.25 µM
- GI50 [15]: 1.68 µM
- TGI [15]: 3.34 µM
- GI50 [16]: 2.7 µM
- TGI [16]: 7.98 µM
- GI50 [17]: 2.07 µM
- TGI [17]: 5.53 µM
- GI50 [18]: 12.3 µM
- TGI [18]: 28.2 µM
- GI50 [19]: 4.57 µM
- TGI [19]: 27.1 µM
- GI50 [20]: 1.58 µM
- TGI [20]: 3.97 µM
- GI50 [21]: 2.58 µM
- TGI [21]: 10.6 µM
- GI50 [22]: 3.04 µM
- TGI [22]: 11.8 µM
- GI50 [23]: 14.8 µM
- TGI [23]: 28.9 µM
- GI50 [24]: 3.23 µM
- TGI [24]: 12.8 µM
- GI50 [25]: 14.1 µM
- TGI [25]: 29.2 µM
- GI50 [26]: 3.36 µM
- TGI [26]: 13 µM
- GI50 [27]: 10.3 µM
- TGI [27]: 22.7 µM
- GI50 [28]: 3.26 µM
- TGI [28]: 12.1 µM
- GI50 [29]: 1.96 µM
- TGI [29]: 5.22 µM
- GI50 [30]: 1.73 µM
- TGI [30]: 3.27 µM
- GI50 [31]: 1.96 µM
- TGI [31]: 4.34 µM
- GI50 [32]: 1.66 µM
- TGI [32]: 3.08 µM
- GI50 [33]: 1.8 µM
- TGI [33]: 3.55 µM
- GI50 [34]: 1.95 µM
- TGI [34]: 3.99 µM
- GI50 [35]: 1.79 µM
- TGI [35]: 3.79 µM
- GI50 [36]: 1.78 µM
- TGI [36]: 3.47 µM
- GI50 [37]: 3.45 µM
- TGI [37]: 12.1 µM
- GI50 [38]: 13 µM
- TGI [38]: 36.4 µM
- GI50 [39]: 1.84 µM
- TGI [39]: 3.91 µM
- GI50 [40]: 1.84 µM
- TGI [40]: 3.66 µM
- GI50 [41]: 1.75 µM
- TGI [41]: 3.28 µM
- GI50 [42]: 2.25 µM
- TGI [42]: 6.25 µM
- GI50 [43]: 1.79 µM
- TGI [43]: 3.45 µM
- GI50 [44]: 5.97 µM
- TGI [44]: 20.8 µM
- GI50 [45]: 4.67 µM
- TGI [45]: 19.4 µM
- GI50 [46]: 1.61 µM
- TGI [46]: 3.52 µM
- GI50 [47]: 2.19 µM
- TGI [47]: 8.18 µM
- GI50 [48]: 4.1 µM
- TGI [48]: 19.8 µM
- GI50 [49]: 2.34 µM
- TGI [49]: 6.22 µM
- GI50 [50]: 1.74 µM
- TGI [50]: 3.28 µM
- GI50 [51]: 1.94 µM
- TGI [51]: 4.38 µM
- GI50 [52]: 2 µM
- TGI [52]: 4.23 µM
- GI50 [53]: 1.61 µM
- TGI [53]: 2.98 µM
- GI50 [54]: 1.66 µM
- TGI [54]: 3.09 µM
- GI50 [55]: 1.89 µM
- TGI [55]: 4.19 µM
- GI50 [56]: 2.1 µM
- TGI [56]: 4.77 µM
